Measurements as given in US5324724A (priority 1990, dated 1994).
Where two headings read alike, the source gives them in different places.

Columns and labels:
muscarinic receptors [1] = type: binding, Hooded Lister rats; conditions: rat cerebral cortex; 0.27 nM 3H-QNB; 37° C., 30 min; E3 as hydrochloride salt, all others as oxalate salts
muscarinic receptors [2] = assay: Displacement of muscarinic agonist 3H-Oxotremorine-M (3H-OXO-M) binding, cerebral cortex membranes; design: species or system Hooded Lister rats; conditions: rat cerebral cortex; 2 nM 3H-OXO-M; 37° C., 30 min; E3 as hydrochloride salt, all others as oxalate salts

Nc1nncc(C23CCN(CC2)C3)n1 [Example E4, 4-(3-Amino-1,2,4-triazin-5-yl)-1-azabicyclo[2.2.1]heptane]
IC50 (muscarinic receptors [1]): 1490 nM | IC50 (muscarinic receptors [2]): 4 nM

Nc1nncc(C2CN3CCC2CC3)n1 (racemic) [Example E6, (±)3-(3-Amino-1,2,4-triazin-5-yl)-1-azabicyclo[2.2.2]octane]
IC50 (muscarinic receptors [1]): 2370 nM | IC50 (muscarinic receptors [2]): 11 nM

Cc1nncc(C23CCCN(CC2)C3)n1 (racemic) [Example E1, (±) 5-(3-Methyl-l,2,4-triazin-5-yl)-1-azabicyclo[3.2.1]octane]
IC50 (muscarinic receptors [1]): 1800 nM | IC50 (muscarinic receptors [2]): 33 nM

Cc1nncc(C2CN3CCC2CC3)n1 (racemic) [Example E7, (±) 3-(3-Methyl-1,2,4-triazin-5-yl)-1-azabicyclo[2.2.2]octane]
IC50 (muscarinic receptors [1]): 175 nM | IC50 (muscarinic receptors [2]): 3.3 nM

COc1nncc(C23CCN(CC2)C3)n1 [Example E5, 4-(3-Methoxy-1,2,4-triazin-5-yl)-1-azabicyclo[2.2.1]heptane]
IC50 (muscarinic receptors [1]): 14000 nM | IC50 (muscarinic receptors [2]): 1100 nM

Nc1nncc(C23CCCN(CC2)C3)n1 (racemic) [Example E2, (±) 5-(3-Amino-l,2,4-triazin-5-yl)-1-azabicyclo[3.2.1]octane]
IC50 (muscarinic receptors [1]): 1110 nM | IC50 (muscarinic receptors [2]): 5 nM

Nc1nncc(C2CN3CCC2C3)n1 (racemic) [E9a & E9b, (±) exo and endo 3-(3-Amino-1,2,4-triazin-5-yl) -1-azabicyclo[2.2.1]heptane]
IC50 (muscarinic receptors [1]): 320 nM | IC50 (muscarinic receptors [2]): 1.1 nM

Cc1nncc([C@@H]2CN3CC[C@@H]2C3)n1 (relative stereo) [Example E8a, 3-(3-Methyl-1,2,4-triazin-5-yl) -1-azabicyclo[2.2.1]heptane]
IC50 (muscarinic receptors [1]): 255 nM | IC50 (muscarinic receptors [2]): 3.1 nM

CCc1nncc([C@@H]2CN3CC[C@@H]2C3)n1 (relative stereo) [Example E10, (±) exo and endo 3-(3-Ethyl-1,2,4-triazin-5-yl) -1-azabicyclo[2.2.1]heptane]
IC50 (muscarinic receptors [1]): 240 nM | IC50 (muscarinic receptors [2]): 68 nM

Cc1nncc(C23CCN(CC2)C3)n1 [Example E3, 4-(3-Methyl-1,2,4-triazin-5-yl)-1-azabicyclo[2.2.1]heptane]
IC50 (muscarinic receptors [1]): 4400 nM | IC50 (muscarinic receptors [2]): 70 nM
